Measurements from patent publication US20140335083A1, “METHODS OF TREATMENT AND PREVENTION OF EYE DISEASES” (GLAXO GROUP LIMITED, priority 2011, published 2014).

Key:
Assay type in all cases: in vivo
[1] = system: laser-induced CNV in C57BL/6 mice; assay: Laser-induced CNV in C57/BL6 mice, fluorescein angiography
Procedure: Adult 12 weeks old female C57BL/6 mice were used to generate the laser-induced CNV model. Mice were anesthetized by intraperitoneal ketamine hydrochloride (25 mg/kg) and xylazine (10 mg/kg) and their pupils dilated by topical tropicamide 1%. Laser-photocoagulation was performed a diode laser (680 nm; 210 mW power, 100 ms duration, 100 […]) under direct vision using a hand-held cover slide as a contact lens and were localized to the 2, 10, and 6 o'clock positions of the posterior pole of the retina in both eyes. These laser settings consistently generate a subretinal gas bubble which strongly correlates with laser-induced rupture of Bruch's membrane and successful induction of CNV. Only lesions in which a bubble is formed were included in the analysis. Fluorescein angiography using a Kowa Genesis small animal fundus camera was conducted at 1 week and 2 weeks following induction of CNV. The size of CNV lesions were quantified by digital image analysis the mean area of hyperfluorescence per lesion during the early phase (90 seconds post fluorescein injection). The pupils were dilated by topical tropicamide 1% and fluorescein sodium 2% administered by intraperitoneal injection (0.2 ml). Eyes were excluded if there was significant cataract or keratopathy that could affect laser energy delivery or angiography.
Adult 12 weeks old female C57BL/6 mice were used to generate the laser-induced CNV (3 CNV lesions per mouse retina) model using laser photocoagulation and puncture of Bruch's membrane.
The statistical analysis conducted here is stringent in that number of observations are related to the number of animals treated whereas in most other studies (conducted in the wider literature) using this laser-induced model each lesion (3 CNV lesions per mouse retina) are regarded as independent observations. […] However it is clear that in the case of orally dosed pazopanib either statistical approach would have yielded a robust effect or as such the effect of CCR3 inhibitor '994 in this model appears weaker than orally dosed pazopanib.

[2] = Exposure after oral versus i.p. dosing in mice; settings: mouse; oral v i.p.
[3] = system: spontaneous CNV in JR5558 mice; assay: JR5558 spontaneous CNV model, quantitative immunohistochemistry (isolectin B4 whole-mount); settings: 8 mg/kg BID v Vehicle, 12 days P14-P26
Procedure: JR5558 mice develop CNV (on an atrophic background) spontaneously with CNV lesions first emerging approximately 12 days after birth. JR5558 mice were intraperitoneally treated with various amounts of a rat anti-mouse VEGF receptor (VEGFR)-2 blocking antibody (MAB4431; R&D systems) or a purified rat non-immune isotype match control IgG2α antibody (R&D systems) starting from P14 for a total of 10 doses in 11 days and CNV development was analyzed by fluorescein angiography (FA) 24 hours after the last dose on P25. For Mice treated with CCR3 inhibitor '994 they were dosed intraperitoneally or by eye drop with various concentrations of the drug starting at P14 for a total of 12 days and CNV development was analyzed by FA 24 hours after the last dose on P26. To study the combination effects of anti-VEGFR2 antibody and CCR3 inhibitor '994, mice were treated intraperitoneally with each material alone or in combination starting from P14 for a total of 10 doses in 11 days and CNV development was analyzed by FA 24 hours after the last dose on P25. […]
When CCR3 inhibitor '994 was dosed BID instead of QD, CCR3 inhibitor '994 also produced a significant effect in limiting both total lesion (see, FIG. 4, Table 5) area and total CNV number (see, FIG. 4, Table 6). […] Eyes were completely washed and then analysed by quantitative immunohistochemistry.

## NC(=O)c1ccc(CNC(=O)NC[C@H]2CN(Cc3ccc(Cl)c(Cl)c3)CCO2)cc1 [CCR3 inhibitor '994, 4-[[[[[[(2s)-4-[(3,4-dichlorophenyl)methyl]-2-morpholinyl]methyl]-amino]carbonyl]-amino]methyl]benzamide]
[1]; Table 1 study, 8 mg/kg po QD v Vehicle, Week 1
  Ratio of mean lesion sizes: 0.82
[1]; Table 1 study, 8 mg/kg po QD v Vehicle, Week 2
  Ratio of mean lesion sizes: 0.99
[1]; Table 1 study, 30 mg/kg '994 v 20 mg/kg Pazopanib, Week 1
  Ratio of mean lesion sizes: 1.47
[1]; Table 1 study, 30 mg/kg '994 v 20 mg/kg Pazopanib, Week 2
  Ratio of mean lesion sizes: 2.03
[1]; Table 1 study, 30 mg/kg po QD v Vehicle, Week 1
  Ratio of mean lesion sizes: 0.70
[1]; Table 1 study, 30 mg/kg po QD v Vehicle, Week 2
  Ratio of mean lesion sizes: 0.78
[1]; Table 2 (second) study, 2 mg/kg po QD v Vehicle, Week 1
  Ratio of mean lesion sizes: 0.93
[1]; Table 2 (second) study, 2 mg/kg po QD v Vehicle, Week 2
  Ratio of mean lesion sizes: 0.83
[1]; Table 2 (second) study, 8 mg/kg BID po v Vehicle, Week 1
  Ratio of mean lesion sizes: 0.80
[1]; Table 2 (second) study, 8 mg/kg BID po v Vehicle, Week 2
  Ratio of mean lesion sizes: 0.65
[1]; Table 2 (second) study, 8 mg/kg po QD v Vehicle, Week 1
  Ratio of mean lesion sizes: 0.81
[1]; Table 2 (second) study, 8 mg/kg po QD v Vehicle, Week 2
  Ratio of mean lesion sizes: 0.66
[1]; Table 2 (second) study, 30 mg/kg '994 v 20 mg/kg Pazopanib, Week 1
  Ratio of mean lesion sizes: 2.05
[1]; Table 2 (second) study, 30 mg/kg '994 v 20 mg/kg Pazopanib, Week 2
  Ratio of mean lesion sizes: 2.16
[1]; Table 2 (second) study, 30 mg/kg po QD v Vehicle, Week 1
  Ratio of mean lesion sizes: 0.62
[1]; Table 2 (second) study, 30 mg/kg po QD v Vehicle, Week 2
  Ratio of mean lesion sizes: 0.56
[2]
  reduction in exposure, oral dosing as compared to i.p dosing: 5 fold
[3]
  Difference in mean number of CNV lesions per eye: −8.00
  Difference in mean total CNV area per eye: −76632
